Measured values from paper PMC11602988 (The Journal of Biological Chemistry, 2024).
Substitutions are numbered along the chain they refer to. Values joined by “and” are separate entries in the source; they are usually repeats but may differ in a detail not shown here. Equal values may be shown once. Read-outs that look alike come from different tables or passages of the source.

Columns and labels:
OCT1 WT = target: T1, OCT1 WT (Homo sapiens, UniProt O15245); experiment: Uptake screening (transport ratio over empty vector), HEK293 cells overexpressing OCT1 WT; assay type: cell-based; design: expressed in transfected cells;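 note: intracellular substrate levels quantified by HPLC–tandem mass spectrometry after uptake in HBSS+ buffer at 37 °C, stable Flp-In HEK293 lines, fold change versus empty vector–transfected cells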
T1 sequence (O15245 1-554): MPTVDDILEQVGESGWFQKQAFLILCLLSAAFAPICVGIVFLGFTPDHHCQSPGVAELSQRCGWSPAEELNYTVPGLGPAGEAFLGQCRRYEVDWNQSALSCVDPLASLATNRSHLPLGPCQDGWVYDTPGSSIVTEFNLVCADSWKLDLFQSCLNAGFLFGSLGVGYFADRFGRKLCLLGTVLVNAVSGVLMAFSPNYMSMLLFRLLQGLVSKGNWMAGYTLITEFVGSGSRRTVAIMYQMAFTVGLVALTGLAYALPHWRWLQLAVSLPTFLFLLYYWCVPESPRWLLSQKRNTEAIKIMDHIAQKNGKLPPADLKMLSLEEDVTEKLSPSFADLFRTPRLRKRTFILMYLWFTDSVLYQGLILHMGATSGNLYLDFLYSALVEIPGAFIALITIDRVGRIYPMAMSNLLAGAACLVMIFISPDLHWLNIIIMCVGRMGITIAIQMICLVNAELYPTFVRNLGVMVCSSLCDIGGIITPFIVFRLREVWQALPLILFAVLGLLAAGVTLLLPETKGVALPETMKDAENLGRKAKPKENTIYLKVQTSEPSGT
Procedure: All experiments were carried out using transporter-overexpressing HEK293 cells. […] Cells were cultivated in Dulbecco’s Modified Eagle’s medium supplemented with 10% fetal calf serum, 100 U/ml penicillin, and 100 μg/ml streptomycin. Cells were passaged twice a week and kept in culture for no longer than 30 passages.
For uptake studies, 300,000 HEK293 cells were plated in each well of 24-well plates precoated with poly-D-lysine 48 prior to the experiment. On the day of the experiment, cells were washed once with prewarmed to 37 °C HBSS+ (Hank’s balanced salt solution supplemented with 10 mM Hepes, both Sigma-Aldrich). […] Uptake was stopped by adding ice-cold HBSS+ and cells were washed twice with ice-cold buffer before cell lysis was done using 80% acetonitrile containing an appropriate internal standard for eventual mass spectrometry. Relative quantification was done by comparison of transporter-overexpressing cells to empty vector–transfected controls. For uptake kinetic experiments, cells were incubated with increasing concentrations of substrate dissolved in HBSS+. Absolute quantification was done later by comparison to a standard curve in lysis buffer with known concentration.
Intracellular drug concentrations were detected and quantified by HPLC coupled to mass spectrometry. […] Substance-specific conditions were used to adjust the retention times of the analytes.
Transport ratios were determined as relative fold-increase of the uptake in transporter-overexpressing cells over empty vector–transfected control cells. For transport kinetic experiments, absolute substrate quantification was done by signal comparison to a standard curve with known concentrations. Net uptake was then determined by subtracting the uptake into empty vector–transfected cells from transporter-overexpressing cells. […] Vmax defines the maximum transport velocity, Km refers to the substrate concentration required to reach half vmax. The intrinsic clearance Clint is the ratio of vmax over Km.

OCT1 Phe244Ala variant = target: T2, OCT1 Phe244Ala variant (Homo sapiens, UniProt O15245, F244A); experiment: Uptake screening (transport ratio over empty vector), HEK293 cells overexpressing OCT1 Phe244Ala variant; assay type: cell-based; design: expressed in transfected cells;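 note: stably transfected HEK293 cells, intracellular substrate quantified by HPLC-tandem mass spectrometry in cell lysates, uptake in HBSS+ buffer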
T2 sequence (O15245 1-554 F244A): T1 sequence (O15245 1-554) with F244A

[1] = uptake ratio over empty vector, HEK293 cells overexpressing OCT1 WT
[2] = Phe244Ala uptake relative to WT
[3] = uptake ratio over empty vector, HEK293 cells overexpressing OCT1 Phe244Ala
[4] = uptake ratio of OCT1 WT-overexpressing HEK293 cells over empty vector
[5] = uptake ratio of OCT1 Phe244Ala-overexpressing HEK293 cells over empty vector
[6] = Phe244Ala uptake relative to OCT1 WT

| Structure (SMILES) | Mean_transport_ratio_WT (OCT1 WT; [1]) | Mean_transport_ratio_Phe244Ala (OCT1 Phe244Ala variant; [3]) | Mean_transport_ratio_WT (OCT1 WT; [4]) | Mean_transport_ratio_Phe244Ala (OCT1 Phe244Ala variant; [5]) | relative_Phe244Ala_uptake_in% (OCT1 Phe244Ala variant; [6]) | further results |
| --- | --- | --- | --- | --- | --- | --- |
| CCNCC(O)c1cccc(O)c1 (centres unmarked) [Etilefrine] | 6.81 | 3.319 | – | – | – | relative_Phe244Ala_uptake_in% (OCT1 Phe244Ala variant; [2]): 39.917% |
| O=S(=O)(c1cccc2cnccc12)N1CCCNCC1 [Fasudil] | – | – | 1 | 1.171 | – | – |
| C[N+]1(CCC(C(N)=O)(c2ccccc2)c2ccccc2)CCCCC1 [Fenpiverinium] | – | – | 38.408 | 50.359 | 131.946% | – |
| CCOC(=O)c1ccc(OC(=O)CCCCCNC(=N)N)cc1 [Gabexate] | – | – | 1.935 | 2.051 | 112.397% | – |
| N=C(N)NC(=O)Cc1c(Cl)cccc1Cl [Guanfacine] | – | – | 3.273 | 2.966 | 86.485% | – |
| COc1ccc2c3c([nH]c2c1)C(C)=NCC3 [Harmaline] | – | – | 1.46 | 1.245 | 53.184% | – |
| CC(N)CCCC(C)(C)O (centres unmarked) [Heptaminol] | – | – | 8.957 | 2.658 | 20.840% | – |
| Oc1ccc(CC2NCCc3cc(O)c(O)cc32)cc1 (centres unmarked) [Higenamine] | – | – | 27.934 | 13.029 | 44.661% | – |
| NCc1ccc(O)cc1 [Hydroxybenzylamin] | – | – | 2.288 | 1.294 | 22.795% | – |
| C[C@H]1N=C(N(C)C)N=C(N)N1 [Imeglimin] | – | – | 32.655 | 9.177 | 25.831% | – |
| CCC(NC(C)C)C(O)c1ccc(O)c(O)c1 (centres unmarked) [Isoetharine] | – | – | 15.766 | 16.355 | 103.988% | – |
| CC(C)NCC(O)c1ccc(O)c(O)c1 (centres unmarked) [Isoproterenol] | – | – | 6.241 | 2.519 | 28.983% | – |
| C[n+]1ccc(-c2ccccc2)cc1 [MPP^+, 1-Methyl-4-phenylpyridinium] | – | – | 45.919 | 29.377 | 63.172% | – |
| CNC1(C)C2CCC(C2)C1(C)C (centres unmarked) [Mecamylamine] | – | – | 1.579 | 0.581 | -72.241% | – |
| C[N+]1(C)CCCC(OC(=O)C(O)(c2ccccc2)c2ccccc2)C1 (centres unmarked) [Mepenzolate] | – | – | 28.031 and 34.795 | 36.4 and 41.936 | 130.959% and 121.132% | – |
| CCC1(c2cccc(O)c2)CCCCN(C)C1 (centres unmarked) [Meptazinol] | – | – | – | – | – | Mean_transport_ratio_WT (OCT1 WT): 1.477; Mean_transport_ratio_Phe244Ala (OCT1 Phe244Ala variant): 1.571; relative_Phe244Ala_uptake_in% (OCT1 Phe244Ala variant): 119.786% |
| NC(N)=NCc1cccc(I)c1 [Metaiodobenzylguanidine] | – | – | 11.544 | 11.193 | 96.674% | – |
| CNCC(O)c1ccc(O)c(OC)c1 (centres unmarked) [Metanephrine] | – | – | 7.123 | 3.351 | 38.392% | – |
| C[N@+]1(CC2CC2)CC[C@]23c4c5ccc(O)c4O[C@H]2C(=O)CC[C@@]3(O)[C@H]1C5 [Methylnaltrexone] | – | – | 47.714 | 66.016 | 139.178% | – |
| Cc1ncccc1C(N)=O [Methylnicotinamide] | – | – | 3.894 | 0.82 | -6.232% | – |

| Structure (SMILES) | Mean_transport_ratio_WT (OCT1 WT; [1]) | Mean_transport_ratio_Phe244Ala (OCT1 Phe244Ala variant; [3]) | Mean_transport_ratio_WT (OCT1 WT; [4]) | Mean_transport_ratio_Phe244Ala (OCT1 Phe244Ala variant; [5]) | relative_Phe244Ala_uptake_in% (OCT1 Phe244Ala variant; [6]) | further results |
| --- | --- | --- | --- | --- | --- | --- |
| CNCc1ccc(CSCCNC(=C[N+](=O)[O-])NC)o1 [N-Desmethyl ranitidine] | 35.663 | 31.7 | – | – | – | relative_Phe244Ala_uptake_in% (OCT1 Phe244Ala variant; [2]): 88.566% |
| CC[N+](CC)(CC)CC(=O)Nc1c(C)cccc1C [N-Ethyllidocaine] | 41.537 | 53.323 | – | – | – | relative_Phe244Ala_uptake_in% (OCT1 Phe244Ala variant; [2]): 129.074% |
| CNCCc1ccc(O)cc1 [N-Methyl-p-tyramine] | – | – | 6.673 | 1.688 | 12.133% | – |
| CNCCc1c[nH]c2ccc(O)cc12 [N-Methylserotonin] | – | – | 31.114 | 8.275 | 24.160% | – |
| CC(C)(C)NCC(O)COc1cccc2c1CC(O)C(O)C2 (centres unmarked) [Nadolol] | – | – | 9.921 | 13.705 | 142.415% | – |
| CN(C)C(=O)Oc1cccc([N+](C)(C)C)c1 [Neostigmine] | – | – | 51.144 | 12.952 | 23.835% | – |
| CNC(=C[N+](=O)[O-])NCCSCc1csc(CN(C)C)n1 [Nizatidine] | – | – | 4.961 | 1.413 | 10.436% | – |
| NCC(O)c1cccc(O)c1 (centres unmarked) [Norphenylephrine] | – | – | 2.898 | 1.772 | 40.709% | – |
| CN(C)CC(c1ccc(O)cc1)C1(O)CCCCC1 (centres unmarked) [O-Desmethylvenlafaxine] | 2.309 | 3.092 | – | – | – | relative_Phe244Ala_uptake_in% (OCT1 Phe244Ala variant; [2]): 159.771% |
| NCC(O)c1ccc(O)cc1 (centres unmarked) [Octopamine] | – | – | 3.942 | 2.606 | 54.574% | – |
| COc1ccc(CC(C)(C)NC[C@H](O)c2cc(O)cc3c2OCC(=O)N3)cc1 [Olodaterol] | 6.02 | 7.992 | – | – | 139.279% | – |
| Cc1nccn1CC1CCc2c(c3ccccc3n2C)C1=O (centres unmarked) [Ondansetron] | 1.554 | 1.514 | – | – | 92.867% | – |
| Cc1cc(C(C)(C)C)c(O)c(C)c1CC1=NCCN1 [Oxymetazoline] | 8.039 | 8.896 | – | – | 112.174% | – |
| CC[N+](C)(CC)CCOC(=O)C(O)(c1ccccc1)C1CCCCC1 (centres unmarked) [Oxyphenonium] | 32.636 | 40.516 | – | – | 124.905% | – |
| COc1cc2c(cc1OC)-c1cc3ccc(OC)c(OC)c3c[n+]1CC2 [Palmatin] | 7.047 | 4.951 | – | – | 65.326% | – |
| [H]/N=C(/N)N/C(=N/[H])NCCc1ccccc1 [Phenformin] | 29.083 | 32.603 | – | – | 112.534% | – |
| CNC[C@H](O)c1cccc(O)c1 [Phenylephrine] | 9.854 | 3.61 | – | – | 29.477% | – |
| CC(C)(C)NCC(O)c1ccc(O)c(CO)n1 (centres unmarked) [Pirbuterol] | 68.047 | 54.212 | – | – | 79.364% | – |
| CN1CCN(CC(=O)N2c3ccccc3C(=O)Nc3cccnc32)CC1 [Pirenzipin] | 1.911 | 8.32 | – | – | 803.892% | – |
